Data set [1] has as its system first instar Aedes aegypti larvae. Nature of the data set: Effect of NPF polypeptides on Aedes aegypti larvae (ingestion, mortality). Conditions: microtiter plate, peptide 2 mg/ml to 0.04 mg/ml with Brewer's yeast, mortality at 24 hour intervals for 3 to 7 days, read-out: LC50 (mM) ± SEM. The class given is in vivo. From the text:
NPF polypeptides sharing sequence homology with NPF I and NPF II of the Colorado potato beetle (Leptinotarsa decemlineata) (Spittaels, et al. Insect Biochem. Mol. Biol., 26 (4):375-382, 1996) have been identified in the American cockroach (Periplaneta americana) (Veenstra and Lambrou, Biochem. Biophys. Res. Commun., 213 (2):519-524, 1995), mosquito (Aedes aegypti) (Stanek et al., Display Presentation, Entomological Society of America Annual Meeting, Montreal, Canada, Dec. 3-6, 2000), and fruit fly (Drosophila melanogaster), and their pesticidal activity was confirmed. Synthesized polypeptides corresponding to the native polypeptides of Colorado potato beetle (SEQ ID NO. 1), mosquito (SEQ ID NOs. 5 and 7), American cockroach (SEQ ID NOs. 9 and 11), and fruit fly (SEQ ID NOs. 13 and 15) were provided to first instar Aedes aegypti larvae for ingestion. Non-amidated versions of SEQ ID NOs. 5, 7, 9, 11, 13, and 15 (SEQ ID NOs. 6, 8, 10, 12, 14, and 16, respectively), as well as other functional equivalents (SEQ ID NOs. 17-24), were also provided for ingestion.
First instar Aedes aegypti larvae were assayed in a microtiter plate in 188 μl solution containing 160 μl of water, 10 μl of 2% Brewer's yeast, and NPF polypeptides of the subject invention at concentrations of 2 mg/ml to 0.04 mg/ml (Table 2). Mortality was determined at 24 hour intervals for 3 to 7 days. Controls were run with yeast solution lacking the NPF polypeptide.

Data set [2] has as its system trypsin biosynthesis in the midgut of female Aedes aegypti. Put plainly: Trypsin biosynthesis in blood-fed female mosquitoes injected with peptide (whole mosquitos). Conditions: whole blood-fed females, injected 0.25 μl, 10^−6 M peptide, midguts assayed 30 hours later. The class given is in vivo. The text has this:
To find out if NPF I and II affect trypsin biosynthesis in the midgut of female Aedes aegypti, […] were removed and assayed for trypsin biosynthesis (Borovsky el al., 1990 “Mosquito Oostatic Factor: A Novel Decapeptide Modulating Trypsin-Like Enzyme Biosynthesis in the Midgut” FASEB J. 4:3015-3020; Borovsky et al. 1993 “Mass Spectrometry and Characterization of Aedes aegypti Trypsin Modulating Oostatic Factor (TMOF) and its Analog” Insect Biochem. Molec. Biol. 23:703-712). Each experiment was repeated 3 times (5 females per group) and the results are expressed as % inhibition of trypsin biosynthesis±S.E.M. (FIG. 1).

Consider eleven substances from patent US7714106B2, “Neuropeptides and their use for pest control” (University of Florida Research Foundation, Inc., priority 1999, dated 2010).

No end group written: not given here.

By LC50 is commonly meant the concentration that kills 50% of the test population. On to “ARGPQLRLRF-NH2 [SEQ ID NO. 1, Ala-Arg-Gly-Pro-Gln-Leu-Arg-Leu-Arg-Phe-amide]”, for which the LC50 in data set [1] came to 0.65 ± 0.04 mM.

Consider “RPPTRFRF-NH2 [SEQ ID NO. 5, Arg-Pro-Pro-Thr-Arg-Phe-Arg-Phe-amide]”, for which, in data set [1], the LC50 was 0.61 ± 0.018 mM. The same measure, in the same setting: as for “APQLRLRF-NH2 [SEQ ID NO. 7, Ala-Pro-Gln-Leu-Arg-Leu-Arg-Phe-amide]”, the figure is 0.8 ± 0.06 mM; as for “ADRSPSLRLRF-NH2 [SEQ ID NO. 11, Ala-Asp-Arg-Ser-Pro-Ser-Leu-Arg-Leu-Arg-Phe-amide]”, 0.65 ± 0.03 mM. The same measure, in the same setting: the result for “AQRSPSLRLRF-NH2 [SEQ ID NO. 15, Ala-Gln-Arg-Ser-Pro-Ser-Leu-Arg-Leu-Arg-Phe-amide]” reads 1.03 ± 0.1 mM; that for “PIRSPSLRLRF-NH2 [SEQ ID NO. 13, Pro-Ile-Arg-Ser-Pro-Ser-Leu-Arg-Leu-Arg-Phe-amide]”, 0.589 ± 0.04 mM. For “LRLRF-NH2 [SEQ ID NO. 21, Leu-Arg-Leu-Arg-Phe-amide]”, the LC50 in data set [1] was above 2.8 mM.

Take “ANRSPSLRLRF-NH2 [SEQ ID NO. 9, Ala-Asn-Arg-Ser-Pro-Ser-Leu-Arg-Leu-Arg-Phe-amide]”: the LC50 in data set [1] was 0.135 ± 0.06 mM.

As to “RSPSLRLRF-NH2 [SEQ ID NO. 17, Arg-Ser-Pro-Ser-Leu-Arg-Leu-Arg-Phe-amide]”, in data set [1], the LC50 is 0.82 ± 0.07 mM. As for “PSLRLRF-NH2 [SEQ ID NO. 19, Pro-Ser-Leu-Arg-Leu-Arg-Phe-amide]”, the LC50 in data set [1] is above 2.25 mM. Regarding “Ala-Pro-Ser-Leu-Arg-Leu-Arg-Phe-amide (APSLRLRF-NH2) [NPF II, amidated neuropeptide NPF II, native to the Colorado potato beetle]”, in data set [2], the “% inhibition of trypsin biosynthesis” value amounted to 35%.
